What was measured:
[1] = target: IL-17A(FLAG-Tagged): IL-17RA(His-Tagged) (Homo sapiens, UniProt Q16552, K93Q); experiment: IL-17A(FLAG-Tagged): IL-17RA(His-Tagged) Binding Disruption Eu-HTRF Assay, Protocol 1; details: Protocol 1, FLAG tagged IL-17A 2.5 nM; simple average if tested more than once
Excerpt: An antibody directed against the FLAG tag of IL-17A (SEQ ID NO: 1) is labeled with the HTRF donor chromophore (Europium-cryptate). IL-17A is present as a dimer that is “locked into” this quaternary structure due to the formation of loop-spanning […] disulfide bridges. The construct of IL-17RA used in the assay excludes the […] portion of the receptor and is fused to a C-terminal 10×His tag (SEQ ID NO:2). An antibody directed against the His tag of the IL-17RA chimera is labeled with the HTRF acceptor chromophore (“D2”). The fluorescence-resonance energy transfer (FRET) depends on the vicinity of the donor chromophore to the acceptor, and interruption of the binding between the IL-17A and IL-17RA causes the reduction/loss of FRET. Therefore, this assay allows to evaluate the compound effect on the binding IL-17A and IL-17RA by monitoring the fluorescence intensity of donor vs acceptor. The assay was run using either Protocol 1 or Protocol 2 as described below.
Protocol 1. 40 nl of 2-fold serial diluted compound solution for total 22 dilution points is added into each well of a 1536-well, white, low-volume, non-binding plate (Greiner #782904), then 2 μl of FLAG tagged IL-17A at 2× final concentration (2.5 nM) in solution of PBS+0.01% Triton-X100 is added to each well. The assay plate is briefly centrifuged then incubated for 1 h at rt. A mixed solution is prepared containing 2×5 nM 10HIS×IL-17RA, 2×2.5 nM Eu-anti-FLAG (CISBIO), 2×5 nM D2-anti-HIS (CISBIO) in PBS+0.01% Triton-X100+200 mM Potassium Fluoride (Sigma 60238) and 2 μl of mix is added to each well of the assay plate. The plate is briefly centrifuged then incubated for 2 h at rt. The HTRF intensities at the wavelength of donor (620 nm) and acceptor (665 nm) are measured using BMG Pherastar. The ratio between intensities at two wavelengths is calculated and plotted against the compound concentration and the data is fitted to a one-site competition model to yield IC50 of the compound.

[2] = tested on: IL-17A-induced G-CSF production in human normal keratinocyte (NHK); experiment: NHK Assay: IL-17A-induced G-CSF production in human normal keratinocyte; format: cell-based; details: 24 h, IL-17A 5 ng/mL, simple average if tested more than once
Method: IL-17A acts directly on keratinocytes through binding to dimeric receptor IL-17RA/RC and drives the production of a number of inflammatory mediators known to be elevated in psoriasis lesional tissue. IL-17A small molecule inhibitors that block the IL-17A to interact with IL-17R would inhibit the IL-17A signaling in its targeted cells such as keratinocytes. The compound functional activity is evaluated for its impact on IL-17A-induced G-CSF production in human normal keratinocyte (NHK).
Adult normal human keratinocytes are cultured in keratinocyte growth medium (Lonza) in a flask till reaching ˜90% confluence, then cells are transferred to a 384-well plate at density of 3000-4000 cell/well. Recombinant human IL-17A (Gibco PHC9174) is pre-incubated with titrated compound or DMSO for 1 h at rt then added to the cell culture plate. The final concentration of IL-17A is 5 ng/mL and DMSO is 0.2%, in the culture containing 5% FBS. Cells are cultured/treated for 24 h at 37° C. Supernatants are collected and G-CSF production is measured through HTRF technology using Human G-CSF Kit (CisBio). G-CSF concentration was extrapolated from the standard curve and IC50 is determined using GraphPad Prism. Cell viability is also evaluated using CellTiter-Glo kit (Promega) and effect of compound on cell viability is compared to DMSO control.

Chain of UniProt Q16552 (Q16552 with tags, fused parts or gaps K93Q): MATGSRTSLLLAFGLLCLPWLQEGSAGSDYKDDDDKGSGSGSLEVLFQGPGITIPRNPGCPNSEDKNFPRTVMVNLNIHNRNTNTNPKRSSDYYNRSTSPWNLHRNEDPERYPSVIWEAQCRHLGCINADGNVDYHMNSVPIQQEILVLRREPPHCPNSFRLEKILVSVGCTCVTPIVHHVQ

IC50 [1]	SMILES	IC50 ([2]; Homo sapiens, Keratinocyte)	IC50 [2]
50 to 100 nM	[2H]C1([2H])[C@H](C(F)(F)F)NC(=O)N1[C@@H](c1ccc2[nH]c([C@@H](NC(=O)c3nonc3C)[C@@H](C)O[C@H](C)C(F)(F)F)nc2c1)C1CC1 (relative stereo) [Example 8, N-((1R*,2R)-1-(5-((R)-Cyclopropyl((R*)-2-oxo-4-(trifluoromethyl)imidazolidin-1-yl-5,5-d2)methyl)-1H-benzo[d]imidazol-2-yl)-2-(((R)-1,1,1-trifluoropropan-2-yl)oxy)propyl)-4-methyl-1,2,5-oxadiazole-3-carboxamide]	> 100 nM	–
< 50 nM	[2H]C1([2H])[C@@H](C(F)(F)F)NC(=O)N1[C@@H](c1ccc2[nH]c([C@@H](NC(=O)c3nonc3C)[C@@H](C)O[C@H](C)C(F)(F)F)nc2c1)C1CC1 (relative stereo) [Example 9, N-((1R*,2R)-1-(5-((R)-Cyclopropyl((S*)-2-oxo-4-(trifluoromethyl)imidazolidin-1-yl-5,5-d2)methyl)-1H-benzo[d]imidazol-2-yl)-2-(((R)-1,1,1-trifluoropropan-2-yl)oxy)propyl)-4-methyl-1,2,5-oxadiazole-3-carboxamide]	< 50 nM	–
< 50 nM	[2H]C1([2H])[C@@H](C(F)(F)F)NC(=O)N1[C@@H](c1ccc2[nH]c([C@@H](NC(=O)c3nonc3C)[C@@H](C)O[C@@H](C)C(F)(F)F)nc2c1)C1CC1 (relative stereo) [Example 12, N-((1R*,2R)-1-(5-((R)-Cyclopropyl((S*)-2-oxo-4-(trifluoromethyl)imidazolidin-1-yl-5,5-d2)methyl)-1H-benzo[d]imidazol-2-yl)-2-(((S)-1,1,1-trifluoropropan-2-yl)oxy)propyl)-4-methyl-1,2,5-oxadiazole-3-carboxamide]	–	< 50 nM
< 50 nM	C[C@H](c1ccc2[nH]c([C@H](COC(C)(C)C(F)(F)F)NC(=O)c3nonc3C3CC3)nc2c1)N1CC(F)(F)CNC1=O (relative stereo) [Example 25, 4-Cyclopropyl-N—((R)-1-(5-((R*)-1-(5,5-difluoro-2-oxotetrahydropyrimidin-1(2H)-yl)ethyl)-1H-benzo[d]imidazol-2-yl)-2-((1,1,1-trifluoro-2-methylpropan-2-yl)oxy)ethyl)-1,2,5-oxadiazole-3-carboxamide]	< 50 nM	–
< 50 nM	Cc1nonc1C(=O)N[C@@H](COC(C)(C)C(F)(F)F)c1nc2cc([C@@H](C)N3CC(F)(F)CNC3=O)ccc2[nH]1 (relative stereo) [Example 26, N—((R)-1-(5-((R*)-1-(5,5-Difluoro-2-oxotetrahydropyrimidin-1(2H)-yl)ethyl)-1H-benzo[d]imidazol-2-yl)-2-((1,1,1-trifluoro-2-methylpropan-2-yl)oxy)ethyl)-4-methyl-1,2,5-oxadiazole-3-carboxamide]	< 50 nM	–
–	[2H]C1([2H])N([C@@H](c2ccc3nc([C@H](COC(C)(C)C(F)(F)F)NC(=O)c4nonc4C)[nH]c3c2)C2CC2)C(=O)NCC1(F)F [Example 77, N—((R)-1-(5-((R)-Cyclopropyl(5,5-difluoro-2-oxotetrahydropyrimidin-1(2H)-yl-6,6-d2)methyl)-1H-benzo[d]imidazol-2-yl)-2-((1,1,1-trifluoro-2-methylpropan-2-yl)oxy)ethyl)-4-methyl-1,2,5-oxadiazole-3-carboxamide]	< 50 nM	–
–	[2H]C1([2H])NC(=O)N([C@@H](c2ccc3[nH]c([C@H](COC(C)(C)C(F)(F)F)NC(=O)c4nonc4C4CC4)nc3c2)C2CC2)C([2H])([2H])C1(F)F [Example 78, 4-Cyclopropyl-N—((R)-1-(5-((R)-cyclopropyl(5,5-difluoro-2-oxotetrahydropyrimidin-1(2H)-yl-4,4,6,6-d4)methyl)-1H-benzo[d]imidazol-2-yl)-2-((1,1,1-trifluoro-2-methylpropan-2-yl)oxy)ethyl)-1,2,5-oxadiazole-3-carboxamide]	< 50 nM	–
–	[2H]C1([2H])NC(=O)N([C@@H](c2ccc3[nH]c([C@H](COC(C)(C)C(F)(F)F)NC(=O)c4ccnn4C(C)C)nc3c2)C2CC2)C([2H])([2H])C1(F)F [Example 79, N—((R)-1-(5-((R)-Cyclopropyl(5,5-difluoro-2-oxotetrahydropyrimidin-1(2H)-yl-4,4,6,6-d4)methyl)-1H-benzo[d]imidazol-2-yl)-2-((1,1,1-trifluoro-2-methylpropan-2-yl)oxy)ethyl)-1-isopropyl-1H-pyrazole-5-carboxamide]	< 50 nM	–
–	[2H]C1([2H])NC(=O)N([C@@H](c2ccc3[nH]c([C@H](COC(C)(C)C(F)(F)F)NC(=O)c4nonc4C)nc3c2)C2CC2)C([2H])([2H])C1(F)F [Example 80, N—((R)-1-(5-((R)-Cyclopropyl(5,5-difluoro-2-oxotetrahydropyrimidin-1(2H)-yl-4,4,6,6-d4)methyl)-1H-benzo[d]imidazol-2-yl)-2-((1,1,1-trifluoro-2-methylpropan-2-yl)oxy)ethyl)-4-methyl-1,2,5-oxadiazole-3-carboxamide]	< 50 nM	–
–	[2H]C1([2H])NC(=O)N([C@@H](c2ccc3[nH]c([C@H](COC(C)(C)C(F)(F)F)NC(=O)c4nonc4C)nc3c2)C2CC2)CC1(F)F [Example 81, N-[(1R)-1-[5-[(R)-Cyclopropyl-(4,4-dideuterio-5,5-difluoro-2-oxo-hexahydropyrimidin-1-yl)methyl]-1H-benzimidazol-2-yl]-2-(2,2,2-trifluoro-1,1-dimethyl-ethoxy)ethyl]-4-methyl-1,2,5-oxadiazole-3-carboxamide]	< 50 nM	–
–	[2H]C1([2H])NC(=O)N([C@@H](c2ccc3[nH]c([C@H](COC(C)(C)C(F)(F)F)NC(=O)c4nonc4C4CC4)nc3c2)C2CC2)CC1(F)F [Example 82, 4-Cyclopropyl-N-[(1R)-1-[5-[(R)-cyclopropyl-(4,4-dideuterio-5,5-difluoro-2-oxo-hexahydropyrimidin-1-yl)methyl]-1H-benzimidazol-2-yl]-2-(2,2,2-trifluoro-1,1-dimethyl-ethoxy)ethyl]-1,2,5-oxadiazole-3-carboxamide]	< 50 nM	–
–	Cc1nonc1C(=O)N[C@H](c1nc2c(F)cc([C@@H](C3CC3)N3C[C@@H](C(F)(F)F)NC3=O)cc2[nH]1)[C@@H](C)O[C@H](C)C(F)(F)F [Example 86, N-[(1R,2R)-1-[6-[(R)-Cyclopropyl-[(4S)-2-oxo-4-(trifluoromethyl)imidazolidin-1-yl]methyl]-4-fluoro-1H-benzimidazol-2-yl]-2-[(1R)-2,2,2-trifluoro-1-methyl-ethoxy]propyl]-4-methyl-1,2,5-oxadiazole-3-carboxamide]	< 50 nM	–
–	Cc1nonc1C(=O)N[C@H](c1nc2ccc(CN3C[C@@H](C(F)(F)F)NC3=O)c(F)c2[nH]1)[C@@H](C)O[C@H](C)C(F)(F)F [Example 92, N-[(1R,2R)-1-[7-Fluoro-6-[[(4S)-2-oxo-4-(trifluoromethyl)imidazolidin-1-yl]methyl]-1H-benzimidazol-2-yl]-2-[(1R)-2,2,2-trifluoro-1-methyl-ethoxy]propyl]-4-methyl-1,2,5-oxadiazole-3-carboxamide]	< 50 nM	–
–	C[C@@H](O[C@H](C)C(F)(F)F)[C@H](NC(=O)c1nonc1C1CC1)c1nc2ccc(CN3C[C@@H](C(F)(F)F)NC3=O)c(F)c2[nH]1 [Example 93, 4-Cyclopropyl-N-[(1R,2R)-1-[7-fluoro-6-[[(4S)-2-oxo-4-(trifluoromethyl)imidazolidin-1-yl]methyl]-1H-benzimidazol-2-yl]-2-[(1R)-2,2,2-trifluoro-1-methyl-ethoxy]propyl]-1,2,5-oxadiazole-3-carboxamide]	< 50 nM	–

From patent US20250122181A1, “BENZIMIDAZOLES AS MODULATORS OF IL-17” (Janssen Pharmaceutica NV, priority 2021, published 2025)
